From PubChem BioAssay AID342 (DTP/NCI, 2004)
Values joined by “and” are separate entries in the source; they are usually repeats but may differ in a detail not shown here. Equal values may be shown once.

System: Swiss mice, Sarcoma 180 sc, mean tumor weight T/C
Experiment: NCI In Vivo Anticancer Drug Screen. Data for tumor model Sarcoma 180 (subcutaneous) in Swiss mice
Settings: endpoint: mean tumor weight, higher = larger tumour
Outline: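 Mice bearing transplanted tumors were treated with compound, and survival or tumor size was measured. Values are expressed as the treated-group measurement (T) divided by the vehicle-treated control measurement (C).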

## CCCCN(CCCC)C(=O)c1[nH]cnc1N
dose: 100.0 mg/kg/injection, schedule: Q01DX007 (ip), vehicle: carboxymethylcellulose (CMC)
  T/C: 55 % of control
dose: 200.0 mg/kg/injection, schedule: Q01DX007 (ip), vehicle: carboxymethylcellulose (CMC)
  T/C: 58 % of control
dose: 250.0 mg/kg/injection, schedule: Q01DX007 (ip), vehicle: carboxymethylcellulose (CMC)
  T/C: 87 % of control
dose: 375.0 mg/kg/injection, schedule: Q01DX007 (ip), vehicle: carboxymethylcellulose (CMC)
  T/C: 57 % of control

## CCC(=O)NC
dose: 1000.0 mg/kg/injection, schedule: Q01DX007 (ip), vehicle: other
  T/C: 41 % of control and 63 % of control
dose: 1250.0 mg/kg/injection, schedule: Q01DX007 (ip), vehicle: other
  T/C: 14 % of control and 33 % of control

## O=[N+]([O-])c1ccc(/C=N\Nc2ccc([N+](=O)[O-])cn2)cc1
dose: 5.1 mg/kg/injection, schedule: Q#A X014 (ip), vehicle: methylcellulose (MC)
  T/C: 88 % of control
dose: 10.25 mg/kg/injection, schedule: Q#A X014 (ip), vehicle: methylcellulose (MC)
  T/C: 61 % of control
dose: 12.0 mg/kg/injection, schedule: Q#A X014 (ip), vehicle: methylcellulose (MC)
  T/C: 98 % of control
dose: 20.55 mg/kg/injection, schedule: Q#A X014 (ip), vehicle: methylcellulose (MC)
  T/C: 64 % of control
dose: 41.1 mg/kg/injection, schedule: Q#A X014 (ip), vehicle: methylcellulose (MC)
  T/C: 47 % of control

## CCCOc1ccc2c(c1)CC[C@@H]1[C@@H]2CC[C@@]2(C)[C@H]1CC[C@]2(C)O
dose: 0.5 mg/kg/injection, schedule: Q#A X014 (sc), vehicle: steriod suspending solution
  T/C: 110 % of control
dose: 5.0 mg/kg/injection, schedule: Q#A X014 (sc), vehicle: steriod suspending solution
  T/C: 63 % of control
dose: 50.0 mg/kg/injection, schedule: Q#A X014 (sc), vehicle: steriod suspending solution
  T/C: 84 % of control

## CCCS/C(N)=N/N=C/c1ccc([N+](=O)[O-])o1
dose: 13.5 mg/kg/injection, schedule: Q#A X014 (ip), vehicle: water
  T/C: 81 % of control
dose: 20.0 mg/kg/injection, schedule: Q#A X014 (ip), vehicle: water
  T/C: 53 % of control
dose: 27.0 mg/kg/injection, schedule: Q01DX007 (ip), vehicle: other
  T/C: 67 % of control
dose: 27.0 mg/kg/injection, schedule: Q01DX007 (ip), vehicle: water
  T/C: 61 % of control
dose: 30.0 mg/kg/injection, schedule: Q#A X014 (ip), vehicle: water
  T/C: 34 % of control
dose: 40.0 mg/kg/injection, schedule: Q01DX007 (ip), vehicle: water
  T/C: 45 % of control
dose: 60.0 mg/kg/injection, schedule: Q01DX007 (ip), vehicle: water
  T/C: 59 % of control

## COc1ccc(C[C@H](N)C(=O)NC2C(CO)OC(n3cnc4c(N(C)C)ncnc43)C2O)cc1 (some centres not stated)
dose: 12.5 mg/kg/injection, schedule: Q#A X014 (ip), vehicle: carboxymethylcellulose (CMC)
  T/C: 106 % of control
dose: 13.12 mg/kg/injection, schedule: Q01DX007 (ip), vehicle: carboxymethylcellulose (CMC)
  T/C: 65 % of control
dose: 26.25 mg/kg/injection, schedule: Q01DX007 (ip), vehicle: carboxymethylcellulose (CMC)
  T/C: 105 % of control
dose: 52.5 mg/kg/injection, schedule: Q01DX007 (ip), vehicle: carboxymethylcellulose (CMC)
  T/C: 66 % of control
dose: 105.0 mg/kg/injection, schedule: Q01DX007 (ip), vehicle: carboxymethylcellulose (CMC)
  T/C: 80 % of control

## O=C(O)c1cccc2c3c(cc([N+](=O)[O-])c12)CCCC3
dose: 1.5 mg/kg/injection, schedule: Q01DX007 (ip), vehicle: carboxymethylcellulose (CMC)
  T/C: 157 % of control
